According to US12344820B2, “Laundry detergent and fabric care compositions with sulfonamides for odor removal from fabrics” (Rem Brands, Inc., priority 2019, dated 2025):

Assay: Soaking of sweaty polyester workout shirts in BENZ solution, subjective scent rating by a group of people
Settings: for Post Dry average scent rating: 30 min soak, after shirt dried; for Post Wet average scent rating: after 30 minutes of soaking; for Pre Soak average scent rating: shirt smelled before soaking (baseline)
Excerpt: Polyester workout shirts were worn without deodorant during a one-hour workout to induce copious amounts of sweat. The shirts were kept in sealed plastic bags for several days, mimicking normal wash schedule delay. The shirts were then soaked in buckets containing various amounts of N-chloro-4-carboxybenzenesulfonamide (BENZ). The bucket contained either zero (control), 0.02 wt %, 0.04 wt %, or 0.15 wt % of the BENZ (e.g. 0.02 grams BENZ per 100 grams of water, w/w). No agitation, spinning, or moving of any kind occurred during the soaking. After 30 minutes of soaking, the shirts were wrung out and laid to dry.
The shirts were smelled before soaking (Pre Soak), after the 30 minutes of soaking (Post Wet), and after they were dried (Post Dry) by a group of people who subjectively rated the scent of the shirt on a scale of 0 (no smell) to 10 (extremely smelly).

[1] = 0.02 wt % BENZ in water, scale 0 to 10
[2] = 0.04 wt % BENZ in water, scale 0 to 10
[3] = 0.15 wt % BENZ in water, scale 0 to 10

## O=C(O)c1ccc(S(=O)(=O)NCl)cc1 [BENZ, N-chloro-4-carboxybenzenesulfonamide]
[1]
  Post Dry average scent rating: 5
  Post Wet average scent rating: 5
  Water average scent rating: 7
0.02 wt % BENZ in water, scale 0 (no smell) to 10 (extremely smelly)
  Pre Soak average scent rating: 10
0.02 wt % concentration
  effect on malodor: reduced the intensity of the malodor significantly
[2]
  Post Dry average scent rating: 4
  Post Wet average scent rating: 5
  Water average scent rating: 5
  Pre Soak average scent rating: 10
0.04 wt % concentration
  effect on malodor: reduced the intensity of the malodor significantly
[3]
  Post Dry average scent rating: 0
  Post Wet average scent rating: 1
  Water average scent rating: 2
  Pre Soak average scent rating: 10
0.15 wt % concentration, once the shirt was dry
  effect on malodor: eradicated the malodor completely
